Experimental data reported in a melting point compilation (Tetko et al.; mined from patent text by program, amines drawn as free bases though some values may be those of a salt).

| SMILES | melting point [°C] |
| --- | --- |
| Cc1cn(-c2cccc(C(F)(F)F)c2)nc(-c2ccnn2-c2ccccc2)c1=O | 147 to 150 |
| O=C(c1ccc(F)c(Cl)c1)N1CCC(F)(CNCc2ccc(CF)cn2)CC1 | 157 to 159 |
| Cc1ccc(N)cc1S(=O)(=O)Nc1onc(C)c1C | 204 to 205 |
| Cc1cccc(CC(=O)Nc2cc(Cl)c(Cl)cc2[N+](=O)[O-])c1 | 122 to 124 |
| COCCOc1cccc(-c2ccc(C3CCN(S(=O)(=O)C(C)(C)C(=O)O)CC3)cc2C)n1 | 142 to 146 |
| CCOc1cc2ncc(C#N)c(Nc3cccc(Br)c3)c2cc1OCC | 173 to 175 |
| ClC(Cl)(Cl)c1nnc(C=Cc2ccc(C=Cc3ccccc3)cc2)o1 | 176 to 178 |
| O=c1[nH]c2cc(Cl)cc(Cl)c2c(O)c1Sc1ccc(NS(=O)(=O)c2ccc(Cl)cc2)cc1 | 270 to 274 |
| Cc1cnc(-c2ccc(-c3ccccc3S(=O)(=O)Nc3onc(C)c3C)cc2)o1 | 90 to 100 |
| CCc1cccc(NC(=O)c2ccn3c2CSC3c2cccnc2)n1 (centres undefined) | 150 |
| CNC(=O)N1CC(Oc2cccc(C(N)=O)c2)C1 | 238 to 240 |
| C(#Cc1ccccn1)CCc1nc2ccccc2s1 | 98.5 to 99.4 |
| C=C(CCCCCCCCCCCCCCCCCC)C(=O)OC | 48 to 50 |
| CC(C)(C)OC(=O)c1ccc(C(=O)NS(=O)(=O)c2ccccc2)cc1 | 141 to 143 |
| Cc1cncc(Oc2cccc(NC(=O)N3CCc4c(cnc5[nH]nc(Br)c45)C3)c2)n1 | 221 to 223 |
| CN(C)c1cccc2nc3cccc(C(=O)O)c3nc12 | 186 to 188 |
| NC(=O)CNC(=O)c1ccccc1I | 183 to 185 |
| NC1=NN(C(=O)NC=NO)C(=O)C1Cc1ccccc1 (centres undefined) | 195 |
| N#Cc1cc(Sc2ccc(Cl)c(Cl)c2)ccc1[N+](=O)[O-] | 136 to 138 |
| O=S(=O)(c1ccccc1)c1ccc(OCc2ccccc2)c(O)c1 | 144 to 148 |
| COc1ccc2c(c1)C(=O)N(CCN(C)CCN1C(=O)c3cc(OC)ccc3C(C)(C)C1=O)C(=O)C2(C)C | 150 to 151 |
| CCCCc1ncc(/C=C(\Cc2ccc(OC)s2)C(=O)O)n1Cc1ccccc1Cl | 184 to 186 |
| O=S(=O)(CCCCCOc1ccc(C2=C(c3ccccc3)CCCc3cc(OC4CCCCO4)ccc32)cc1)CCCC(F)(F)C(F)(F)F (centres undefined) | 107 to 110 |
| CCCCCCCCCOC1C(O)C(CO)OC1n1cnc2c(=O)[nH]c(NC(=O)C(C)C)nc21 (centres undefined) | 168 to 169 |
| CC1=NC(NC(=O)OCc2ccccc2)C(=O)N(CC(=O)C(C)(C)C)c2ccccc21 (centres undefined) | 68 |

| SMILES | melting point [°C] |
| --- | --- |
| CCCCNC(=O)c1cc(S(=O)(=O)NC23CC4CC(CC(C4)C2)C3)cc2c1OCCO2 | 147 |
| CC1Sc2c(C(=O)O)c(=O)c3cc(F)c(N4CCC(N)C4)c(Cl)c3n21 (centres undefined) | > 300 |
| CCNC(=O)Nc1ccc(-c2sc3c(c2CN(C)CCC(=O)N2CCCC2)c(=O)n(-c2ccccc2)c(=O)n3Cc2c(F)cccc2F)cc1 | 240 to 244 |
| CCCC(O)c1cc(C#N)ccc1OCc1ccc(Cl)cc1Cl (centres undefined) | 120 to 121 |
| CCCS(=O)(=O)Nc1ccc(-c2ccc(C(=O)O)c(=O)[nH]2)cc1 | > 260 |
| Cc1oc(-c2ccco2)nc1COc1ccc(Cc2nc(-c3ccccc3)c(CCC(=O)O)o2)cc1 | 74 to 76 |
| O=C(O)c1cccc(Nc2ccc(-c3ccoc3)cc2[N+](=O)[O-])c1 | 203 to 205 |
| COC(=O)CN(NC(N)=O)c1ccc(Oc2ccccc2)cc1 | 110 to 113 |
| CC(C)CN1C(=O)N(C)C2(NC(=O)NC2=O)c2cc(Cl)ccc21 (centres undefined) | 118 |
| O=C(Cn1c(=O)n(S(=O)(=O)c2ccc(Cl)cc2)c(=O)c2ccc(Cl)cc21)Nc1ccccc1 | 217 to 218 |
| CCCC(=O)c1cnc2c(C(O)CN3CCOCC3)cccc2c1Nc1ccccc1C (centres undefined) | 135 to 137 |
| CCOC(=O)c1cn(Cc2ccccc2)nc1OCc1ccc(OCc2nc(-c3ccco3)oc2C)c(OC)c1 | 117 to 118 |
| CCNc1cccc2c1C(=O)c1cccc(NCC)c1C2=O | 193 to 195 |
| CC(C)c1nc(CN2C(=O)C3(COc4cc5c(cc43)OCO5)c3c(Cl)cccc32)cs1 (centres undefined) | 147 to 148 |
| O=C(O)CS(=O)(=O)c1ccc2c(-c3ccccc3F)noc2c1 | 168 to 169 |
| O=C(O)C(=NOc1ccccc1)c1cccs1 | 86 |
| COc1ccc(C#Cc2cccc(CN(O)C(C)=O)c2)cc1 | 124 to 126 |
| O=C1N(Cc2ccccn2)c2ccccc2C12COc1cc3c(cc12)OCCO3 (centres undefined) | 144 to 146 |
| CCOC(=O)C(C#N)=CNNCC(=Cc1ccccc1)c1ccccc1 | 129 to 133 |
| Cc1ccc2c(n1)Oc1ccc(C(C)C(=O)OCCC(N)=O)cc1C2 (centres undefined) | 143 to 145 |
| COc1ccc2c(Cl)nncc2c1 | 181 to 183 |
| COc1ccc(N2C(=O)N(c3ccccc3)c3nc(Nc4ccccc4)ncc3C2C(C)C)cc1 (centres undefined) | 229 to 235 |
| Nc1ccccc1NCCO | 105 to 106 |
| CC12CCC(C(=NO)C1=NN)C(C)(C)O2 (centres undefined) | 138 to 142 |
| CCOC1CC2(C)C(CCC3C4CCC(C(C)=O)C4(C)CC(NC(=O)OCC(Cl)(Cl)Cl)C32)CC1OC(=O)OCC(Cl)(Cl)Cl (centres undefined) | 147 to 149 |

| SMILES | melting point [°C] |
| --- | --- |
| Cc1nc(N2CCN(Cc3ccc(OC(F)(F)F)cc3)C2=O)sc1C(N)=O | 185 to 187 |
| COc1cc(Nc2c(C#N)cnc3cc(C#Cc4ccncc4)sc23)c(Cl)cc1Cl | 221 to 223 |
| O=C(O)c1cc(NCc2c(F)c(F)c(C(F)(F)F)c(F)c2F)ccc1O | 179 |
| NS(=O)(=O)OCCCOc1ccc(-n2ccnc2)cc1 | 105 to 106 |
| O=C(O)CCC(Cc1ccccc1Br)(C(=O)C=Cc1ccc(Cl)cc1)c1ccccc1 (centres undefined) | 210 to 214 |
| COc1cccc(OC)c1CN1C(=O)C2CCCN2c2ccccc21 (centres undefined) | 128 to 130 |
| O=C(Sc1ccccn1)c1ccncc1 | 115 |
| COc1cc([N+](=O)[O-])c2nccc(C)c2c1OCCCCCc1ccccc1 | 47 to 50 |
| O=C(CC(O)=S)c1ccccc1 | 103 to 105 |
| Cc1c(S(C)(=O)=O)c2ccccc2n1CC1=NCCN1 | 187 to 188 |
| CCOC(=O)C(=O)Nc1coc2ccc(Cl)cc2c1=O | 161 to 162 |
| COC(=O)c1c(Oc2ccc(Cl)cc2N)c2ccccc2n1Cc1ccccc1 | 121 to 123 |
| COc1cc(N)c(Cl)cc1C(=O)NCC1CCN(CCCCCNCc2cccs2)CC1 | 67 to 69 |
| CSc1nc(N)c2nsnc2n1 | 197 to 199 |
| COc1ccc(C2(C#Cc3cccc([N+](=O)[O-])c3)CCCC(=O)C2)cc1OC1CCCC1 (centres undefined) | 46 to 48 |
| COC(=O)N(C)c1cccc(C(=O)C=CN(C)C)c1 | 93 to 95 |
| CC(C)(C)OC(=O)Nc1c(F)cccc1[N+](=O)[O-] | 100 to 101 |
| CN(C)CCCn1c(-c2ccc(Br)cc2)cc2c1CCSC2 | 88 to 90 |
| CCc1nc2c(N)nc3cc(-c4cccnc4)ccc3c2n1CC(C)(C)O | 245 to 247 |
| COc1cc(C=O)ccc1OCc1nc(N2CCOCC2)sc1C | 127 to 128 |
| CCOC(=O)C(=O)CC(=O)C=Cc1ccc(O)c(OC)c1 | 97 to 98 |
| NC(=NO)c1cccc2ccccc12 | 128 to 130 |
| O=c1[nH]c(-c2ccc(C(F)(F)F)cc2C(F)(F)F)nn1-c1cc(Cl)ccc1O | 270 to 275 |
| ON=c1cc(-c2cc3sccc3cn2)oc2ccc(OCCc3ccc(F)cc3)cc12 | 228 to 234 |
| C(#Cc1ccccc1)C1=CCN(Cc2c[nH]c3ncccc23)CC1 | 198 to 200 |

| SMILES | melting point [°C] |
| --- | --- |
| CN1CC(C(=O)NCc2cccnc2)CC2c3cccc4c3c(cn4C)CC21 (centres undefined) | 185 to 187 |
| CCCCCCCCCCCCCCCCOc1ccccc1-c1ccccc1 | 35 to 37 |
| CCOC(=O)C1CC1c1cc(=O)c2ccc3ccccc3c2o1 (centres undefined) | 106 |
| CNC(=O)C(=NOC)c1ccccc1COc1ncc(C(=O)OC(C)C)cc1C | 101 to 102 |
| CNC(=N[N+](=O)[O-])N(Cc1cnc(Cl)s1)C(=O)N1CCOCC1 | 130 to 131 |
| COC(=O)c1c(C)sc2cc(CCl)ccc12 | 78 to 79 |
| CCCCc1nnc2n1-c1sc3c(c1C(c1ccccc1Cl)=NC2)CCNC3 | 224 |
| CC(C)(C)c1cc(S)cc(C(C)(C)C)c1 | 47 to 49 |
| COC(=O)C(C)=C(C(=O)OC)C1C=CC=CC1(C)C(C(=O)OC)=C(C)C(=O)OC (centres undefined) | 90 |
| CC(O)c1sc(S(N)(=O)=O)cc1S(C)(=O)=O (centres undefined) | 121 to 127 |
| CCn1cc(C(=O)O)c(=O)c2cc(F)c(N3CCN(C)C(COc4ccccc4)C3)cc21 (centres undefined) | 202 to 204 |
| Cc1cn2c(N)c(Cl)cc(C(=O)NCC3CCN(CC(=O)C(C)(C)C)CC3)c2n1 | 198 |
| COc1ccc(C2(C3CCCC3=O)CCC(C(=O)O)CC2)c2c1OCCO2 (centres undefined) | 200 to 201 |
| Cc1cc(-c2ccc(C(F)(F)F)cc2)cc(-c2cccc(-c3cccc(N)c3)n2)n1 | 167 |
| CCOC(=O)CC(=O)c1cc2cc(F)c(F)c(F)c2nc1Cl | 78 to 80 |
| O=C(Nc1nonc1-c1ccccc1)NC1CCC(C(F)(F)F)CC1 (centres undefined) | 212 |
| CN1CCN(c2ccc(Nc3ncc4ccc(-c5ccccc5OCC#N)n4n3)cc2)CC1 | 95 to 101 |
| CN1C(=O)CCC2(C)c3ccc(Sc4cccc5cccnc45)cc3CCC12 (centres undefined) | 241 to 242 |
| C=CCc1cc(COC(=O)C(C)C)ccc1C#CC1(O)CN2CCC1CC2 (centres undefined) | 68 |
| CC(C)NCC(O)(Cn1cncn1)c1ccc(Cl)cc1Cl (centres undefined) | 132 to 133 |
| Cc1cn(C)c2c1N(C(=O)CN1CCCC1)c1ccccc1NC2=O | 210 to 212 |
| Cc1c(N2C(=O)C=CC2=O)cccc1N1C(=O)C=CC1=O | 210 to 212 |
| COC=C1C(=O)N(OCc2ccccc2)C(=O)c2ccccc21 | 161 to 162 |
| CC(=O)N1[C@@H](c2ccc(Cl)cc2)SC(C)(C)[C@@H]1C(=O)O | 197 to 198 |
